Test results published in ChEMBL document CHEMBL1159385, “Euphane and tirucallane triterpenes from the roots of Euphorbia kansui and their in vitro effects on the cell division of Xenopus” (2003).

Assays:
Xenopus laevis [1] = organism: Xenopus laevis; assay: Induction of cell cleavage arrest in Xenopus laevis blastular stage cells at 10 ug/mL; format: functional, Blastula stage
Xenopus laevis [2] = organism: Xenopus laevis; assay: Growth inhibition of Xenopus laevis blastular stage cells at 10 ug/mL; format: functional; conditions: Blastula stage, read-out: GI

Compound | Activity (Xenopus laevis [1]) [%] | inhibition of growth at 10 µg/mL (Xenopus laevis [2]) [%]
CC(C)=CCC[C@H](C)[C@@H]1CC[C@]2(C)C3=C(CC[C@@]12C)[C@@]1(C)CC[C@H](O)C(C)(C)[C@@H]1CC3=O | >50 | 
O=c1[nH]cc(F)c(=O)[nH]1 [FLUOROURACIL] |  | 47
CC(C)=CCC[C@@H](C)[C@@H]1CC[C@]2(C)C3=C(CC[C@@]12C)[C@@]1(C)CC[C@H](O)C(C)(C)[C@@H]1CC3=O [KANSENONE] | >50 | 
